Measured values: patent publication US20250223306A1, “TEAD INHIBITORS AND METHODS OF USE” (Sporos BioDiscovery, Inc., priority 2022, published 2025)

Key:
NCI-H226 cells [1] = test: Proliferation and cell viability, CellTiter-Glo 2.0 (CTG) assay; assay type: cell-based; settings: H226-responder cell line, 144 hrs
Experimental: (§1) Cell proliferation of a TEAD dependent NF2-null mesothelioma cell line, NCI-H226, and a TEAD-non-dependent mesothelioma cell line, NCI-H28 was assayed using two different protocols: • a) CellTiter-Glo 2.0 (Promega #G9243). The effect of the TEAD inhibitors disclosed herein on cell proliferation was determined in TEAD1-genetically dependent cell line NCI-H226 (responder cell line) and TEAD-independent cell lines (NCI-H23, HEK293T), as non-responder, negative control. Cells were seeded in 96-well plates (Thermo Scientific #167008) in growth media (RPMI-1640, Gibco #61870-010) for NCI-H226 and NCI-H23 or DMEM (Gibco #31966-021, HEK293T) with 10% Heat Inactivated Fetal Bovine Serum (Gibco 10500-064) at 800 (NCI-H226 and HEK-293T) or 2000 (NCI-H23) cells per well at 37° C., 5% CO2, humidified incubator; 24 hours later, fresh growth media containing test compound or DMSO vehicle was added and incubated with the cells for 144 hrs. TEAD inhibitor stocks were made at a 1000× fold excess in DMSO, and a dose response test compound dose range of 10,000 to 0.1 nM was used. Each treatment was carried out in triplicate. After 144 hrs of treatment, relative cell viability numbers were determined using the CellTiter-Glo 2.0 assay following the manufacturer's instructions. Test plates and CellTiter-Glo 2.0 reagent were allowed to equilibrate to room temperature. CellTiter-Glo 2.0 reagent was added at 1:1 reagent to media ratio to the 96-well cell plates, plates were placed on a plate shaker for 2 minutes and then incubated at room temperature for a further 10 minutes to allow complete cell lysis to occur. The mix was then transferred to white, 96-well luminometer assay plates (Greiner Bio One #655075). Luminescence was quantified using a CLARIOStar Plus multi-mode plate reader (BMG Labtech) in luminescence detection mode with the recommended settings (ultra-Glo pre-set: emission 545-50 nm with autofocus and enhanced dynamic range on). Relative cell density was expressed as a function of inhibitor concentration, with respect to DMSO-only control wells. Data where plotted using GraphPad Prism and IC50 values for the biological effect were calculated using the EC50 non-linear fit function using a sigmoidal, 4-parameter logistic, least squares fit with no constraints. • b) Cell Titer One (Promega, #G3582). The effect of the TEAD inhibitors disclosed herein on cell proliferation was also determined using the Promega Substrate Cell Titer Aqueous One Solution Reagent. The TEAD inhibitors were evaluated for the effects on cell proliferation responder (H226) and non-responder negative control cancer cell lines (CAMA1, H28), as well as non-transformed normal human cells (HUVEC, NHDF). Dissociated cells were resuspend in media (depending on cell line, either in DMEM, RPMI, or EMEM all with 10% FBS, with gentamicin as an antibiotic). Cells were seeded at 100 μL/well at 750 cells per well in 96-well plates and allowed to settle and attach. After an incubation of 24 hrs (37° C., 5% CO2, humidified incubator), 100 μL of test compound-containing media was added. A dilution series of 2000× concentrated stock of test compounds was prepared in DMSO, for final concentrations from 0.1 to 10,000 nM. After addition of test compound-containing media, cells were incubated for 6 days at 37° C., 5% CO2, humidified incubators). To measure cell density, 20 μL of Promega Substrate Cell Titer 96 Aqueous One Solution Reagent (Promega, #G3582) to each well was added according to the manufacturer's instructions. Plates were incubated at 37° C. for usually 3-8 hrs, to reach in the control cells (without compound) an OD of 1.5 at 490 nm. The OD was measured using Vmax [Molecular Devices] spectrophotometer plate reader. Media only-wells were used as background controls and cell densities normalized to DMSO vehicle control. ECs were taken as the concentration achieving 50% of maximal growth inhibition.

NCI-H23 cells = test: as above; assay type: cell-based; settings: 144 hrs
Experimental: as §1

NCI-H28 cells = test: Proliferation, Cell Titer One assay; assay type: cell-based; settings: 6 days
Experimental: as §1

NCI-H226 cells [2] = test: Proliferation, Cell Titer One assay; assay type: cell-based; settings: 6 days
Experimental: as §1

[3] = system: TEAD/YAP promoter element in MCF7-Luc cells; test: Cell-based TEAD-promoter transcriptional activity assay (MCF-7 TEAD luciferase); settings: Homo sapiens, MCF7; MCF-7 TEAD luciferase assay, 24 hrs
Text: Luciferase based TEAD-transcriptional cell-based reporter assay: To measure the effect of the TEAD inhibitors disclosed herein on TEAD transcriptional activity in cell-based systems, we employed a stable MCF7 cell line expressing luciferase under a consensus synthetic TEAD/YAP promoter element (MCF7-Luc, BPS Bioscience, Catalog #60618). This MCF7-TEAD-Luc cell line has been extensively validated with both genetic and pharmacological intervention, showing inhibition of luciferase expression and luminescence in response to ablation of the TEAD/YAP pathway. MCF7-Luc cells were plated at 10,000 cells per well in white 384-well plates and settled by a quick spin. The media was MEM (Gibco) supplemented with 10% fetal bovine serum (ExCell), selenium-transferrin-insulin mix (Gibco), 1× non-essential amino acids (Gibco) and sodium pyruvate (Gibco). Cells were allowed to attach and grow overnight (37° C., 5% CO2 in humidified incubator), and test compounds were added the next day. Compounds were dissolved at 1000× fold excess in DMSO and made into 2-fold serial dilution, and added to media at 30 μL of media per well. A DMSO-only well serves a vehicle control. The highest concentration of drug in media was 1,000 nM. Positive control compounds include K975 (pan-TEAD inhibitor) and negative control (Actinomycin). Cells were incubated for 24 hrs with test compounds and positive controls, after which time, the luminescence was measured by the One-Glo luciferase kit (Promega). 30 μL of One-Glo reagent was added to each well and shaken for 8 minutes to lyse the cells. The plates were centrifugated at 1000 RPM for 1 minute to settle all liquid in the well and eliminate bubbles. Luminescence was quantified using an ENVision plate reader (Perkin Elmer). Percent inhibition of luminescence by test compound was expressed as a function of test compound concentration, with the no-test compound DMSO only wells serving as baseline. EC50 values for each compound were calculated with a non-linear asymptotic line fit.

TEAD4 = TEAD4 (Homo sapiens, UniProt Q15561); settings: cited from earlier work
TEAD2 = TEAD2 (Homo sapiens, UniProt Q15562); settings: thermal shift, reported data of Tang and Post; cited from earlier work
TEAD1 = TEAD1 (Homo sapiens, UniProt P28347); settings: cited from earlier work
TEAD3 = TEAD3 (Homo sapiens, UniProt Q99594); settings: thermal shift, reported data of Tang and Post; cited from earlier work
[4] = Homo sapiens, NCI-H23, H23-non-responder cell line
[5] = thermal shift assays of Tang and Post
[6] = thermal shift, reported data of Tang and Post

TEAD1, sequence (P28347 whole entry): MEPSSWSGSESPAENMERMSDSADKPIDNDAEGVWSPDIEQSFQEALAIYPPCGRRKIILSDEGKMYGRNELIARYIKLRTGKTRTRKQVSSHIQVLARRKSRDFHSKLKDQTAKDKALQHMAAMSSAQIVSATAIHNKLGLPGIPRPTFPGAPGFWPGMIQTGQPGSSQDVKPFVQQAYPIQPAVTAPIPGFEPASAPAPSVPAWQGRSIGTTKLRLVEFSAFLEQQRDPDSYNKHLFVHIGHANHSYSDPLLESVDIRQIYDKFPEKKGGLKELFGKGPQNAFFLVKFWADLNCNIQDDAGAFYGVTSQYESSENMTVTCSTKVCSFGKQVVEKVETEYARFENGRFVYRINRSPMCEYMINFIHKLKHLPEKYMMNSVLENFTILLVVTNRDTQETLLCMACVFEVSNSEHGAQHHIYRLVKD
TEAD4, sequence (Q15561 whole entry): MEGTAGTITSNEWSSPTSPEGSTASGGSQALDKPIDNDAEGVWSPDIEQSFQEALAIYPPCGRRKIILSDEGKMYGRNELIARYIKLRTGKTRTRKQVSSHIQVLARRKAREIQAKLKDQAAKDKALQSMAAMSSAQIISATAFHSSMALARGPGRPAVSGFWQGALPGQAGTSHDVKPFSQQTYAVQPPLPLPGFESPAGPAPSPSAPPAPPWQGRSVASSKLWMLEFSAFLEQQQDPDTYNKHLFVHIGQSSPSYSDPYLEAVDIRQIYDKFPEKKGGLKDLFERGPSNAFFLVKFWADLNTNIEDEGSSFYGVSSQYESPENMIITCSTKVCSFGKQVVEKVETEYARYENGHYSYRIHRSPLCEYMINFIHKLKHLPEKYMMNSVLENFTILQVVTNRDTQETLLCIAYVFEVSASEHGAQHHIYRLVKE
TEAD2, sequence (Q15562 whole entry): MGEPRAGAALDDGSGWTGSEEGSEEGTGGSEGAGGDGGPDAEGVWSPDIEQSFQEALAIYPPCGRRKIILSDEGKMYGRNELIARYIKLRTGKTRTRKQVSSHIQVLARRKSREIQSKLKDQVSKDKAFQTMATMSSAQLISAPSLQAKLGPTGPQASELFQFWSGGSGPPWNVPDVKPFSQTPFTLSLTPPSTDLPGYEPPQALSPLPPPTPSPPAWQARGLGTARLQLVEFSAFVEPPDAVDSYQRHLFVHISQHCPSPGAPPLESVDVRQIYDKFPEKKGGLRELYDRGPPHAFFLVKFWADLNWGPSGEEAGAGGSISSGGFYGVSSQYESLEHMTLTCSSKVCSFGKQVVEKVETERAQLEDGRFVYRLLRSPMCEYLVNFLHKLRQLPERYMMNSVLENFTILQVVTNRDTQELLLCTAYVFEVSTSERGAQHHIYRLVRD
TEAD3, sequence (Q99594 whole entry): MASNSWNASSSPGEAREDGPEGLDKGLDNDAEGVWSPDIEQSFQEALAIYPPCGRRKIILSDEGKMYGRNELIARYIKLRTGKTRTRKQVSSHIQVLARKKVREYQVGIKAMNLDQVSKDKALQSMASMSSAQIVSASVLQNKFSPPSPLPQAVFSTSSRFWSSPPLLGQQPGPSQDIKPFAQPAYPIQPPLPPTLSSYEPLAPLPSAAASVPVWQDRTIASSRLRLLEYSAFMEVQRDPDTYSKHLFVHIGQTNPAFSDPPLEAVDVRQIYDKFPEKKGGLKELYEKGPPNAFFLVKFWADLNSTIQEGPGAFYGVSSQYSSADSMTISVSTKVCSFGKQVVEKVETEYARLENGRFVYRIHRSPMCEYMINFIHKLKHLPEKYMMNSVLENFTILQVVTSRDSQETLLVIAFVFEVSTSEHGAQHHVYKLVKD

C[C@H](NC(=O)c1cnc2c(C3=CC[C@@H](C(F)(F)F)CC3)cccc2c1)c1ncco1 (single isomer, unassigned) [Compound 21, N-(1-(oxazol-2-yl)ethyl)-8-(4-(trifluoromethyl)cyclohex-1-en-1-yl)quinoline-3-carboxamide]
IC50 (NCI-H226 cells [1]): 0.2 to 1 µM | IC50 (NCI-H23 cells; H23-non-responder cell line): > 1 µM | IC50 (NCI-H28 cells): > 1 µM | IC50 (NCI-H226 cells [2]): 0.2 to 1 µM

C[C@H](NC(=O)c1cnc2c(C3=CC[C@@H](C(F)(F)F)CC3)cccc2c1)c1ncco1 (single isomer, unassigned) [Compound 22, N-(1-(oxazol-2-yl)ethyl)-8-(4-(trifluoromethyl)cyclohex-1-en-1-yl)quinoline-3-carboxamide]
IC50 (NCI-H226 cells [1]): < 0.2 µM | IC50 (NCI-H23 cells; H23-non-responder cell line): > 1 µM | IC50 (NCI-H28 cells): > 1 µM | IC50 (NCI-H226 cells [2]): 0.2 to 1 µM

CC(C)NC(=O)c1cnc2c(C3=CCC(C(F)(F)F)CC3)cccc2c1 (centres unmarked) [Compound 1, N-isopropyl-8-(4-(trifluoromethyl)cyclohex-1-en-1-yl)quinoline-3-carboxamide]
EC50 [3]: < 0.2 µM | IC50 (NCI-H226 cells [1]; Homo sapiens, NCI-H226, 144 h): < 0.2 µM | IC50 (NCI-H23 cells; [4]): > 1 µM | IC50 (NCI-H28 cells; Homo sapiens, NCI-H28, 144 h): > 1 µM | IC50 (NCI-H226 cells [2]; Homo sapiens, NCI-H226, 144 h): < 0.2 µM

COC[C@H](C)NC(=O)c1cnc2c(C3=CCC(C(F)(F)F)CC3)cccc2c1 (stereo partly drawn) [Compound 6, N—((S)-1-methoxypropan-2-yl)-8-(4-(trifluoromethyl)cyclohex-1-en-1-yl)quinoline-3-carboxamide]
IC50 (NCI-H226 cells [1]; Homo sapiens, NCI-H226, 144 h): < 0.2 µM | IC50 (NCI-H23 cells; [4]): > 1 µM | IC50 (NCI-H28 cells; Homo sapiens, NCI-H28, 144 h): > 1 µM | IC50 (NCI-H226 cells [2]; Homo sapiens, NCI-H226, 144 h): < 0.2 µM

CS(=O)(=O)c1cnc2c(C3=CCC(C(F)(F)F)CC3)cccc2c1 (centres unmarked) [Compound 16, 3-(methylsulfonyl)-8-(4-(trifluoromethyl)cyclohex-1-en-1-yl)quinoline]
IC50 (NCI-H226 cells [1]; Homo sapiens, NCI-H226, 144 h): < 0.2 µM | IC50 (NCI-H28 cells; Homo sapiens, NCI-H28, 144 h): > 1 µM | IC50 (NCI-H226 cells [2]; Homo sapiens, NCI-H226, 144 h): < 0.2 µM

C[C@H](CO)NC(=O)c1ccc2c(Oc3ccc(C(F)(F)F)cc3)cccc2c1 [VT3989]
binding to TEAD4, in words (TEAD4; [5]): lower levels of binding to TEAD4 | TEAD4 ΔTm (TEAD4; [6]): 4.6 °C | TEAD2 ΔTm (TEAD2): 8.8 °C | interaction with TEAD isoforms, in words (TEAD1; [5]): primarily interacts with TEAD1-3 | TEAD1 ΔTm (TEAD1; [6]): 11.6 °C | TEAD3 ΔTm (TEAD3): 8.5 °C
